PubChem BioAssay AID1963978 (Molecular Pharmacology Branch, DTP, NCI, 2024)
Several values for one entry are separate records, joined by “and”; a condition that tells them apart may be missing. Equal entries are not always repeated.

Tested on: 616215-338-R-J1-PDC spheroids with HUVEC/MSC, viability
Assay: Anticancer human tumor 616215-338-R-J1-PDC patient-derived colon adenocarcinoma cell line growth inhibition [PI3K]
Details: for viability, T/C: stronger effect = lower value
Summary of the method: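 Tumor cells grown as multi-cell spheroids with HUVEC endothelial cells and MSC fibroblast-like stroma were treated with targeted agents combined with inavolisib, alpelisib, duvelisib or copanlisib. Doses fell in half-log steps from near clinical Cmax, else from 10 microM. Viability was measured.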

[1] = curve of first compound, second compound 0.00316 µM
[2] = curve of first compound, second compound 0.01 µM
[3] = curve of first compound, second compound 0.0316 µM
[4] = curve of first compound, second compound 0.1 µM
[5] = curve of first compound, second compound 0.316 µM
[6] = curve of first compound, second compound 1 µM
[7] = second compound 0.00316 µM, first compound 0.0316 µM
[8] = second compound 0.00316 µM, first compound 0.1 µM
[9] = second compound 0.00316 µM, first compound 0.316 µM
[10] = second compound 0.00316 µM, first compound 1 µM
[11] = second compound 0.00316 µM, first compound 3.16 µM
[12] = second compound 0.00316 µM, first compound 10 µM
[13] = second compound 0.01 µM, first compound 0.0316 µM
[14] = second compound 0.01 µM, first compound 0.1 µM
[15] = second compound 0.01 µM, first compound 0.316 µM
[16] = second compound 0.01 µM, first compound 1 µM
[17] = second compound 0.01 µM, first compound 3.16 µM
[18] = second compound 0.01 µM, first compound 10 µM
[19] = second compound 0.0316 µM, first compound 0.0316 µM
[20] = second compound 0.0316 µM, first compound 0.1 µM
[21] = second compound 0.0316 µM, first compound 0.316 µM
[22] = second compound 0.0316 µM, first compound 1 µM
[23] = second compound 0.0316 µM, first compound 3.16 µM
[24] = second compound 0.0316 µM, first compound 10 µM
[25] = second compound 0.1 µM, first compound 0.0316 µM
[26] = second compound 0.1 µM, first compound 0.1 µM
[27] = second compound 0.1 µM, first compound 0.316 µM
[28] = second compound 0.1 µM, first compound 1 µM
[29] = second compound 0.1 µM, first compound 3.16 µM
[30] = second compound 0.1 µM, first compound 10 µM
[31] = second compound 0.316 µM, first compound 0.0316 µM
[32] = second compound 0.316 µM, first compound 0.1 µM
[33] = second compound 0.316 µM, first compound 0.316 µM
[34] = second compound 0.316 µM, first compound 1 µM
[35] = second compound 0.316 µM, first compound 3.16 µM
[36] = second compound 0.316 µM, first compound 10 µM
[37] = second compound 1 µM, first compound 0.0316 µM
[38] = second compound 1 µM, first compound 0.1 µM
[39] = second compound 1 µM, first compound 0.316 µM
[40] = second compound 1 µM, first compound 1 µM
[41] = second compound 1 µM, first compound 3.16 µM
[42] = second compound 1 µM, first compound 10 µM
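Further: spheroids exposed to agents for seven days before the viability read.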

Q: For `CC(Cn1ccc(-c2ccc(C#N)c(Cl)c2)n1)NC(=O)c1cc(C(C)O)[nH]n1` (centres undefined) + CC(Nc1ccc2c(c1)OCCn1cc(N3C(=O)OCC3C(F)F)nc1-2)C(N)=O, which IC50 [1] is on record?
A: > 10 µM

Q: What about the IC50 [2] of the same compound?
A: > 10 µM

Q: And the IC50 [3]?
A: > 10 µM

Q: And the IC50 [4]?
A: > 10 µM

Q: What about the IC50 [5] of the same compound?
A: > 10 µM

Q: What about the IC50 [6] of the same compound?
A: > 10 µM

Q: What about the viability, T/C [7] of the same compound?
A: 90.8%

Q: What about the viability, T/C [8] of the same compound?
A: 94%

Q: And the viability, T/C [9]?
A: 91.2%

Q: What about the viability, T/C [10] of the same compound?
A: 93.6%

Q: And the viability, T/C [11]?
A: 92.4%

Q: And the viability, T/C [12]?
A: 94.3%

Q: What about the viability, T/C [13] of the same compound?
A: 89.3%

Q: And the viability, T/C [14]?
A: 105%

Q: And the viability, T/C [15]?
A: 102%

Q: And the viability, T/C [16]?
A: 92.4%

Q: And the viability, T/C [17]?
A: 92.3%

Q: What about the viability, T/C [18] of the same compound?
A: 104%

Q: What about the viability, T/C [19] of the same compound?
A: 94.4%

Q: What about the viability, T/C [20] of the same compound?
A: 105%

Q: And the viability, T/C [21]?
A: 90.1%

Q: What about the viability, T/C [22] of the same compound?
A: 101%

Q: What about the viability, T/C [23] of the same compound?
A: 96.3%

Q: And the viability, T/C [24]?
A: 101%

Q: And the viability, T/C [25]?
A: 107%

Q: And the viability, T/C [26]?
A: 88%

Q: And the viability, T/C [27]?
A: 96.8%

Q: And the viability, T/C [28]?
A: 102%

Q: And the viability, T/C [29]?
A: 105%

Q: What about the viability, T/C [30] of the same compound?
A: 94.4%

Q: And the viability, T/C [31]?
A: 109%

Q: What about the viability, T/C [32] of the same compound?
A: 104%

Q: What about the viability, T/C [33] of the same compound?
A: 107%

Q: And the viability, T/C [34]?
A: 101%

Q: And the viability, T/C [35]?
A: 101%

Q: And the viability, T/C [36]?
A: 110%

Q: What about the viability, T/C [37] of the same compound?
A: 101%

Q: What about the viability, T/C [38] of the same compound?
A: 99.8%

Q: What about the viability, T/C [39] of the same compound?
A: 104%

Q: And the viability, T/C [40]?
A: 103%

Q: And the viability, T/C [41]?
A: 99.4%

Q: And the viability, T/C [42]?
A: 97.8%

Q: How did the viability, T/C (compound 0.00316 µM) turn out when `CCN1CCN(Cc2ccc(Nc3ncc(F)c(-c4cc(F)c5nc(C)n(C(C)C)c5c4)n3)nc2)CC1` was run?
A: 98.2% [middle of 4 runs]

Q: What about the viability, T/C (compound 0.01 µM) of the same compound?
A: 92.2% [middle of 4 runs]

Q: What about the viability, T/C (compound 0.0316 µM) of the same compound?
A: 97.4% [middle of 4 runs]

Q: What about the viability, T/C (compound 0.1 µM) of the same compound?
A: 114% and 104% (2×) and 116%

Q: What about the IC50 (curve of compound) of the same compound?
A: > 1 µM

Q: With `C[C@@H](NC(=O)c1ncnc(N)c1Cl)c1ncc(C(=O)Nc2cc(C(F)(F)F)c(Cl)cn2)s1` + COc1c(OCCCN2CCOCC2)ccc2c3n(c(=NC(=O)c4cnc(N)nc4)nc12)CCN3 as the compound, how does the IC50 [1] read?
A: > 10 µM

Q: And the IC50 [2]?
A: > 10 µM

Q: And the IC50 [3]?
A: > 10 µM

Q: And the IC50 [4]?
A: 6.86 µM

Q: What about the IC50 [5] of the same compound?
A: 0.072 µM

Q: What about the IC50 [6] of the same compound?
A: < 0.0316 µM

Q: What about the viability, T/C [7] of the same compound?
A: 94.6%

Q: What about the viability, T/C [8] of the same compound?
A: 117%

Q: And the viability, T/C [9]?
A: 117%

Q: What about the viability, T/C [10] of the same compound?
A: 109%

Q: What about the viability, T/C [11] of the same compound?
A: 104%

Q: And the viability, T/C [12]?
A: 80.2%

Q: And the viability, T/C [13]?
A: 96.3%

Q: What about the viability, T/C [14] of the same compound?
A: 102%

Q: What about the viability, T/C [15] of the same compound?
A: 116%

Q: What about the viability, T/C [16] of the same compound?
A: 115%

Q: What about the viability, T/C [17] of the same compound?
A: 112%

Q: What about the viability, T/C [18] of the same compound?
A: 89.3%

Q: What about the viability, T/C [19] of the same compound?
A: 97.9%

Q: What about the viability, T/C [20] of the same compound?
A: 106%

Q: And the viability, T/C [21]?
A: 106%

Q: What about the viability, T/C [22] of the same compound?
A: 113%

Q: What about the viability, T/C [23] of the same compound?
A: 91.2%

Q: And the viability, T/C [24]?
A: 53.3%

Q: And the viability, T/C [25]?
A: 114%

Q: And the viability, T/C [26]?
A: 103%

Q: What about the viability, T/C [27] of the same compound?
A: 97.6%

Q: And the viability, T/C [28]?
A: 97.2%

Q: And the viability, T/C [29]?
A: 74.7%

Q: And the viability, T/C [30]?
A: 37.7%

Q: What about the viability, T/C [31] of the same compound?
A: 54%

Q: And the viability, T/C [32]?
A: 48.4%

Q: And the viability, T/C [33]?
A: 40.2%

Q: And the viability, T/C [34]?
A: 32.2%

Q: And the viability, T/C [35]?
A: 28.4%

Q: What about the viability, T/C [36] of the same compound?
A: 8.73%

Q: What about the viability, T/C [37] of the same compound?
A: 24.4%

Q: And the viability, T/C [38]?
A: 19.7%

Q: What about the viability, T/C [39] of the same compound?
A: 16.2%

Q: And the viability, T/C [40]?
A: 11.3%

Q: What about the viability, T/C [41] of the same compound?
A: 6.09%

Q: What about the viability, T/C [42] of the same compound?
A: 1.64%
